The nature of this data set: Henry solubility constant Hcp at 298.15 K (mol/(m3 Pa)). The following applies: reference: Fendinger and Glotfelty (1990).

In the case of `Cc1cccc2ccccc12` [1-methylnaphthalene], the “Henry solubility constant Hcp” value is 0.016.
The figure for `Clc1ccccc1-c1ccccc1Cl` [2,2'-dichlorobiphenyl] is 0.04; for `c1ccc2c(c1)Cc1ccccc1-2` [2,3-benzindene] it is 0.16.
The figure for `Cc1ccc2ccccc2c1` [2-methylnaphthalene] is 0.031; for `Clc1ccc(-c2ccc(Cl)cc2)cc1` [4,4'-dichlorobiphenyl] it is 0.1; for `c1cc2c3c(cccc3c1)CC2` [acenaphthene] it is 0.16.
With `C1=Cc2cccc3cccc1c23` [acenaphthylene] the figure was 0.088.
Consider `c1ccc2cc3ccccc3cc2c1` [anthracene], for which the “Henry solubility constant Hcp” value stood at 0.51.
The figure for `c1ccc(-c2ccccc2)cc1` [biphenyl] is 0.051; for `CCOP(=S)(OCC)Oc1nc(Cl)c(Cl)cc1Cl` [chlorpyrifos] it is 2.4; for `CCOC(=O)CC(SP(=S)(OC)OC)C(=O)OCC` (stereo unspecified) [malathion] it is 2000.
`COP(=S)(OC)Oc1ccc([N+](=O)[O-])cc1` [methylparathion]: the “Henry solubility constant Hcp” value is 160.
Regarding `c1ccc2ccccc2c1` [naphthalene], the “Henry solubility constant Hcp” value was 0.013.
The figure for `CCOP(=S)(OCC)Oc1ccc([N+](=O)[O-])cc1` [parathion] is 120; for `CCC(CC)Nc1c([N+](=O)[O-])cc(C)c(C)c1[N+](=O)[O-]` [penoxaline] it is 12.
The figure for `c1ccc2c(c1)ccc1ccccc12` [phenanthrene] is 0.42.

The values are drawn from Sander's compilation of Henry's law constants (doi:10.1002/etc.5620090606).
